Laboratory results reported in PubChem BioAssay (NCI).
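Test compounds were applied to cells in 96-well plates for 48 hours at 5 doses. At the GI50, growth is halved. TGI: concentration producing complete growth inhibition.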

Legend:
Assay in all cases: growth of human tumour cells (NCI), 48 h
SF-268 CNS = system: SF-268 CNS
DU-145 prostate = system: DU-145 prostate
A498 renal = system: A498 renal
ACHN renal = system: ACHN renal
PC-3 prostate = system: PC-3 prostate
T-47D breast = system: T-47D breast
K-562 leukemia = system: K-562 leukemia
NCI-H23 lung = system: NCI-H23 lung
MOLT-4 leukemia = system: MOLT-4 leukemia
EKVX NSCLC = system: EKVX NSCLC

| Structure (SMILES) | GI50 (SF-268 CNS) [µM] | TGI (SF-268 CNS) [µM] | GI50 (DU-145 prostate) [µM] | TGI (DU-145 prostate) [µM] | GI50 (A498 renal) [µM] | TGI (A498 renal) [µM] | GI50 (ACHN renal) [µM] | TGI (ACHN renal) [µM] | GI50 (PC-3 prostate) [µM] | TGI (PC-3 prostate) [µM] | GI50 (T-47D breast) [µM] | TGI (T-47D breast) [µM] | GI50 (K-562 leukemia) [µM] | TGI (K-562 leukemia) [µM] | GI50 (NCI-H23 lung) [µM] | TGI (NCI-H23 lung) [µM] | GI50 (MOLT-4 leukemia) [µM] | TGI (MOLT-4 leukemia) [µM] | TGI (EKVX NSCLC) [µM] | GI50 (EKVX NSCLC) [µM] |
| --- | --- | --- | --- | --- | --- | --- | --- | --- | --- | --- | --- | --- | --- | --- | --- | --- | --- | --- | --- | --- |
| C[n+]1cc2cc3c(cc2c2ccccc21)OCO3 | 0.48 | 2.57 | 4.49 | 25.9 | 1.05 | 8.57 | 41.7 | > 100 | 3.12 | 26.4 | 2.95 | 14.4 | 7.24 | > 100 | 2.37 | 13.6 | 4.02 | > 100 | – | – |
| COC(=O)C1=CO[C@@H](OC2OC(CO)C(O)C(O)C2O)[C@@H]2[C@H](C)[C@@H](O)[C@@H](O)[C@]12O (stereo partly drawn) | – | > 100 | – | > 100 | – | > 100 | – | > 100 | – | > 100 | – | > 100 | – | – | – | > 100 | – | > 100 | > 100 | – |
| O=C1Nc2ccc(CN3CCOC3=O)cc2/C1=C/c1cc(CN2CCOCC2)c[nH]1 | > 86.5 | > 100 | > 100 | > 100 | > 45.2 | > 100 | 56 | > 100 | 36.9 | > 100 | 24.9 | > 88.3 | 27.3 | > 100 | 32.5 | > 100 | 28.5 | 78.7 | > 100 | 37.5 |
| CCOC(=O)C(O)Cc1cnc2ccccc2n1 (stereo not drawn) | – | > 100 | – | > 100 | – | > 100 | – | > 100 | – | > 100 | – | > 100 | – | > 100 | – | > 100 | – | > 100 | > 100 | – |
| CCCC(CCC)Oc1ccc(CCCC2=C(O)c3ccccc3C(=O)C2=O)cc1 | 5.22 | 18.9 | 6.71 | 19 | 7.21 | 20.1 | 6.69 | 19 | 3 | 15.7 | 12 | 31.6 | 3.31 | 10.7 | 5.94 | 21.1 | 3.25 | 11.5 | 18 | 5.61 |
| Cc1ccc(S(=O)(=O)N[C@@H](Cc2ccccc2)C(=O)CCl)cc1 | – | 43.6 | 11.1 | 26.1 | – | – | 13 | 28.1 | 5.54 | 22.6 | 21.4 | > 100 | 4.26 | 31.4 | 20.5 | 51.4 | 1.99 | > 100 | 36 | – |
| Cn1ccc2c3c(=O)cc[nH]c3ccc21 | > 100 | > 100 | > 100 | > 100 | – | – | > 100 | > 100 | > 100 | > 100 | > 100 | > 100 | > 100 | > 100 | > 100 | > 100 | > 100 | > 100 | > 100 | > 100 |
| Oc1cc2c(cc1C(c1ccc3c(c1)OCO3)N1CCN(C(c3ccc4c(c3)OCO4)c3cc4c(cc3O)OCO4)CC1)OCO2 (stereo not drawn) | – | 59.3 | – | 41.3 | – | – | – | 26.6 | – | > 100 | – | 34.6 | – | 65.1 | – | 35.4 | – | 28.4 | 98.6 | – |
| O=C(O)c1cc2cc(O)ccc2[nH]1 | > 100 | > 100 | > 100 | > 100 | > 100 | > 100 | > 100 | > 100 | > 100 | > 100 | > 100 | > 100 | – | – | > 100 | > 100 | > 100 | > 100 | > 100 | > 100 |
| C=C(CN(C)Cc1ccccc1)c1ccc(C(=O)Nc2ccccc2N)cc1 | 5.98 | 16.8 | 1.64 | 11.9 | – | – | – | – | 4.95 | > 50 | 0.611 | 4.75 | 3.22 | > 50 | 0.397 | 7.93 | – | – | 37.9 | 8.17 |
| COc1ccc(C2SCC(=O)N2NC(=O)C(O)c2ccccc2)cc1 (stereo not drawn) | > 100 | > 100 | > 100 | > 100 | > 100 | > 100 | > 100 | > 100 | > 100 | > 100 | > 100 | > 100 | 55.5 | > 100 | – | – | > 100 | > 100 | > 100 | > 100 |
| Clc1ccc(-c2nc(C(Cl)Cl)nc3cc(-c4ccccc4)nn23)cc1 | 1.7 | > 50 | 0.516 | 2.02 | 0.912 | 2.21 | – | – | 1.74 | > 50 | 1.73 | > 50 | 1.81 | > 50 | 0.947 | 2.64 | 1.74 | > 50 | – | – |
| CSC(=NC#N)S/C=C/C(=O)c1cccc2ccccc12 | 36.6 | > 100 | 39.1 | > 100 | 40.2 | > 100 | 28.3 | 82 | 31.3 | 99 | 8.59 | > 100 | 29.2 | > 100 | – | – | 8.46 | > 100 | > 100 | 26.4 |
| CC(C)C[C@H]1C(=O)N2CCC[C@H]2[C@]2(O)O[C@](NC(=O)[C@@H]3C=C4c5cccc6[nH]c(Br)c(c56)C[C@H]4N(C)C3)(C(C)C)C(=O)N12 | – | > 100 | – | > 100 | – | > 100 | – | > 100 | – | > 100 | – | > 100 | – | > 100 | – | – | – | > 100 | > 100 | – |
| CC(=O)Oc1ccccc1C(=O)NCCC[Se]C#N | 1.84 | 4.06 | 1.72 | 3.17 | 2.1 | 4.08 | 2.29 | 4.3 | 1.93 | 5.47 | 3.19 | 17.8 | 3.46 | 21.1 | 2.58 | 7.57 | 2.46 | 8.53 | – | – |
| COc1cc2oc(-c3cccc(C(=O)Nc4ccc(C)cc4)c3)cc(=O)c2c(OC)c1OC | 5.61 | > 100 | 3.21 | > 100 | – | – | 2.69 | > 100 | 3.49 | > 100 | 1.94 | > 100 | 3.4 | > 100 | 4.43 | 51.4 | 5.8 | > 100 | – | – |
| CNC1=CC(=O)C2=C(C1=O)C1C3=C(C(=O)C(Br)=C(OC)C3=O)C2c2ccccc21 (stereo not drawn) | 1.87 | 10.3 | 5.9 | 20.8 | – | – | 1.74 | 6.21 | 1.08 | 2.75 | 1.44 | 15.7 | 1.35 | 3.01 | 4.44 | 16 | 1.12 | > 50 | 3.31 | 1.53 |
| CCCC(=O)O[C@]1(C)CC[C@@H]2[C@H]3[C@@H]1[C@@H]1C/C(C)=C\CC[C@](C)(OC(=O)[C@@H]2C)[C@H]3O1 | 47.8 | > 100 | 74.5 | > 100 | – | – | 36.2 | > 100 | 16.2 | 41.3 | > 100 | > 100 | – | – | – | – | 14.7 | 30.5 | > 100 | 68.3 |
| N=C1N=C(N)S/C1=C\c1ccc2ncccc2c1 | > 25 | > 25 | > 25 | > 25 | 13.7 | > 25 | > 25 | > 25 | > 25 | > 25 | > 25 | > 25 | > 25 | > 25 | > 25 | > 25 | > 25 | > 25 | – | – |
| COc1ccccc1Nc1nc2ccccc2c2occc12 | 12.3 | > 50 | 16.9 | > 50 | 21.2 | 43.1 | 10.6 | 24.8 | 18.8 | > 50 | 27.5 | > 50 | 12.9 | 28 | 16.3 | 35.9 | – | – | 28.1 | 11.9 |
| C[C@@H]1CC[C@@H]2[C@@H]1[C@H](OC(=O)c1ccc3ccccc3c1)[C@]1(C3CCCCC3)C[C@@H](OC(=O)CO)[C@@]2(C)O1 | 0.542 | 19.5 | 12.2 | 25.9 | 0.0191 | 0.0679 | – | – | 4.2 | 19.2 | 3.33 | 15.1 | 11.4 | 40.9 | 14.3 | 33.2 | 5.16 | 21.3 | 26.7 | 11.4 |
